Reference: patent publication US6784198B1, “Arylmethyl-carbonylamino-thiazole derivatives and their use as antitumor agents” (Pharmacia Italia S.p.A., priority 1999, dated 2004)

`CC(=O)Nc1nc(CC(=O)Nc2ncc(C(C)C)s2)cs1` [2-[2-(acetylamino)-1,3-thiazol-4-yl]-N-(5-isopropyl-1,3-thiazol-2-yl)acetamide] gave a melting point of 174 to 176 °C.
